Measurements from ChEMBL document CHEMBL1125081, “Stereospecific synthesis and antiviral properties of different enantiomerically pure carbocyclic 2'-deoxyribonucleoside analogues derived from common chiral pools: (+)-(1R,5S)- and (-)-(1S,5R)-2-oxabicyclo[3.3.0]oct-6-en-3-one” (1990).
Converted amounts (≈) assume the structure as drawn.

Experiments:
[1] = tested on: Vesicular stomatitis virus; test: Evaluated for minimum inhibitory concentration against Vesicular stomatitis virus (VSV) in primary rabbit kidney cells; type: functional
Human alphaherpesvirus 2 = test: Evaluated for minimum inhibitory concentration against G,196, Lyons strains of Herpes simplex virus (HSV-2) in primary rabbit kidney cells; type: functional
HeLa = test: Evaluated for minimum inhibitory concentration against HeLa cells (human carcinoma) infected with VSV, Coxs, B4, polio-1 virus; type: functional
Human alphaherpesvirus 1 [2] = test: Evaluated for minimum inhibitory concentration against KOS, F, McIntyre strains of Herpes simplex virus (HSV-1) in primary rabbit kidney cells; type: functional
Human alphaherpesvirus 1 [3] = test: Evaluated for minimum inhibitory concentration against TK-B2006 strain of Herpes simplex virus (HSV-1) in primary rabbit kidney cells; type: functional
Vero = test: Evaluated for minimum inhibitory concentration against Vero cells (African green monkey) infected with PV-3, RV-1, SV, Coxs B4, SFV virus; type: functional; conditions: Chlorocebus sabaeus
Vaccinia virus = test: Evaluated for minimum inhibitory concentration against Vaccinia virus (VV) in primary rabbit kidney cells; type: functional; conditions: Orthopoxvirus vaccinia
[4] = tested on: Human immunodeficiency virus 1; test: Evaluated for minimum inhibitory concentration (MIC) against MT-4 cells of human immunodeficiency virus type-1 (HIV-1); type: functional, MT4
[5] = tested on: Vesicular stomatitis virus; test: Evaluated for minimum inhibitory concentration (MIC) against Vesicular stomatitis virus (VSV); type: functional

NC(=O)c1ncn([C@@H]2O[C@H](CO)[C@@H](O)[C@H]2O)n1 [RIBAVIRIN]
MIC [1]: 300 µg/mL (≈ 1230 µM)
MIC (Human alphaherpesvirus 2): > 400 µg/mL
MIC (HeLa): 20 µg/mL (≈ 81.9 µM)
MIC (Human alphaherpesvirus 1 [2]): > 400 µg/mL
MIC (Human alphaherpesvirus 1 [3]): > 400 µg/mL
MIC (Vero): 150 µg/mL (≈ 614 µM)
MIC (Vaccinia virus): 10 µg/mL (≈ 40.9 µM)

Cc1cn([C@H]2CC[C@@H](CO)C2)c(=O)[nH]c1=O
MIC [1]: > 400 µg/mL
MIC (Human alphaherpesvirus 2): > 400 µg/mL
MIC (HeLa): > 400 µg/mL
MIC (Human alphaherpesvirus 1 [2]): > 400 µg/mL
MIC (Human alphaherpesvirus 1 [3]): > 400 µg/mL
MIC (Vero): > 400 µg/mL
MIC [4]: > 250 µg/mL
MIC (Vaccinia virus): > 400 µg/mL

Nc1ncnc2c1ncn2[C@@H]1C[C@H](CO)[C@@H](O)C1
MIC [1]: > 400 µg/mL
MIC (Human alphaherpesvirus 2): 20 µg/mL (≈ 80.2 µM)
MIC (HeLa): > 100 µg/mL
MIC (Human alphaherpesvirus 1 [2]): 2 µg/mL (≈ 8.02 µM)
MIC (Human alphaherpesvirus 1 [3]): 100 µg/mL (≈ 401 µM)
MIC (Vero): > 100 µg/mL
MIC [4]: > 50 µg/mL
MIC (Vaccinia virus): 100 µg/mL (≈ 401 µM)

Cc1cn([C@@H]2C[C@H](CO)[C@H](O)C2)c(=O)[nH]c1=O
MIC [1]: > 400 µg/mL
MIC (Human alphaherpesvirus 2): > 400 µg/mL
MIC (HeLa): > 400 µg/mL
MIC (Human alphaherpesvirus 1 [2]): > 400 µg/mL
MIC (Human alphaherpesvirus 1 [3]): > 400 µg/mL
MIC (Vero): > 200 µg/mL
MIC [4]: > 250 µg/mL
MIC (Vaccinia virus): > 400 µg/mL

Cc1cn([C@H]2C[C@H](N=[N+]=[N-])[C@@H](CO)O2)c(=O)[nH]c1=O [ZIDOVUDINE]
MIC [4]: 0.001 µg/mL (≈ 0.00374 µM)

Cc1cn([C@H]2C[C@@H](CO)[C@H](O)C2)c(=O)[nH]c1=O
MIC [1]: > 400 µg/mL
MIC (Human alphaherpesvirus 2): > 400 µg/mL
MIC (HeLa): > 100 µg/mL
MIC (Human alphaherpesvirus 1 [2]): > 400 µg/mL
MIC (Vero): > 400 µg/mL
MIC [4]: > 160 µg/mL
MIC (Vaccinia virus): > 400 µg/mL

Nc1nccc2c1ncn2[C@@H]1C[C@H](CO)[C@@H](O)[C@H]1O [3-DEAZAARISTEROMYCIN A]
MIC [1]: 0.7 µg/mL (≈ 2.65 µM)
MIC (Human alphaherpesvirus 2): > 400 µg/mL
MIC (HeLa): 2 µg/mL (≈ 7.57 µM)
MIC (Human alphaherpesvirus 1 [2]): > 400 µg/mL
MIC (Human alphaherpesvirus 1 [3]): 150 µg/mL (≈ 568 µM)
MIC (Vero): 0.7 µg/mL (≈ 2.65 µM)
MIC (Vaccinia virus): 0.7 µg/mL (≈ 2.65 µM)

Cc1cn(C2CC3OCC2C3CO)c(=O)[nH]c1=O (stereo unspecified)
MIC [1]: > 400 µg/mL
MIC (Human alphaherpesvirus 2): > 400 µg/mL
MIC (HeLa): > 400 µg/mL
MIC (Human alphaherpesvirus 1 [2]): > 400 µg/mL
MIC (Human alphaherpesvirus 1 [3]): > 400 µg/mL
MIC (Vero): > 400 µg/mL
MIC [4]: > 250 µg/mL
MIC (Vaccinia virus): > 400 µg/mL

Cc1cn([C@@H]2C[C@H](CO)[C@@H](O)C2)c(=O)[nH]c1=O
MIC [1]: > 200 µg/mL
MIC (Human alphaherpesvirus 2): 2 µg/mL (≈ 8.32 µM)
MIC (HeLa): > 100 µg/mL
MIC (Human alphaherpesvirus 1 [2]): 0.2 µg/mL (≈ 0.832 µM)
MIC (Human alphaherpesvirus 1 [3]): 40 µg/mL (≈ 166 µM)
MIC (Vero): > 100 µg/mL
MIC (Vaccinia virus): 2 µg/mL (≈ 8.32 µM)

O=c1[nH]c(=O)n([C@H]2C[C@H](O)[C@@H](CO)O2)cc1/C=C/Br [BRIVUDINE]
MIC [1]: > 400 µg/mL
MIC (Human alphaherpesvirus 2): 7 µg/mL (≈ 21 µM)
MIC (HeLa): > 400 µg/mL
MIC (Human alphaherpesvirus 1 [2]): 0.02 µg/mL (≈ 0.06 µM)
MIC (Human alphaherpesvirus 1 [3]): > 200 µg/mL
MIC (Vero): > 400 µg/mL
MIC (Vaccinia virus): 20 µg/mL (≈ 60 µM)

Cc1cn([C@H]2C[C@H](O)[C@@H](CO)[C@@H]2C)c(=O)[nH]c1=O
MIC (Human alphaherpesvirus 2): > 400 µg/mL
MIC (HeLa): > 400 µg/mL
MIC (Human alphaherpesvirus 1 [2]): > 400 µg/mL
MIC (Human alphaherpesvirus 1 [3]): > 400 µg/mL
MIC [5]: > 400 µg/mL
MIC (Vero): > 400 µg/mL
MIC [4]: > 250 µg/mL
MIC (Vaccinia virus): > 400 µg/mL
